According to paper PMC12098374, “Case report: Treatment of severe phorate poisoning” (Frontiers in Toxicology, 2025):

Legend:
[1] = Serum levels of phorate, its metabolites and PAM in the poisoned patient (LC-MS); assay type: in vivo, human; conditions: for concentration at 1 day / concentration at 4 h / concentration at 3 day / concentration at 5 day / concentration at 7 day / concentration at 10 day / concentration at 12 day / concentration at 14 day / concentration at 16 day / concentration at 18 day: human, in vivo; for change of serum level while HP was stopped: seventh-10th day, family rejected HP
Procedure: LC-MS was used to detect atropine,PAM,phorate and its metabolites. Ultra-high-pressure liquid chromatography-tandem mass spectrometry on a Sciex Triple TOFTM 5600+ mass spectrometer was used for toxic metabolites terminology screening. Ultra-high-pressure liquid chromatography-tandem mass spectrometry on a Sciextriplequad5500 mass spectrometer was used to detect target analytes quantitatively. Liquid chromatographic separations were performed with a Kinetex C18 column (2.1*50 mm,2.6 μm) from Phenomenex (Torrance, California, United States).Data were processed using the Xcalibur software (version2.0.7) from ThermoFisher.

cholinesterase [2] = conditions: ref Kovarova et al., 2013, cited from earlier work; for IC50: read-out: cholinesterase inhibition IC50; for times more toxic than phorate: relative to phorate, from IC50
[3] = liposolubility; cited from earlier work
[4] = 24 h after ingestion; cited from earlier work
AChE = system: AChE; parameters: method as in Moyer et al., 2018b; conditions: within 48 h; ref Moyer et al., 2018b; cited from earlier work
cholinesterase [5] = target: T1, cholinesterase (Homo sapiens, UniProt P06276); assay: Serum cholinesterase level of the patient during phorate poisoning; assay type: in vivo; conditions: for serum cholinesterase activity: patient
T1 construct: from tissue; host or cells: serum of the patient
Procedure: Cholinesterase levels were measured using petrochemistry products, Ortho Medical Equipment Trade (China) Co., Ltd. slides, and the Medical Device of the PRC Registration Certificate NO.: 20212402803. Dry tablets (rate method) and compound calibrator for cholinesterase were determined by cholinesterase on a vitros5600 automatic biochemical immunoanalyzer (VITROS Chemistry Products, Calibrator kit 6). The reportable range of measurement was 200–12,500 U/L.

[6] = patient, day 1, before HP, about 4 h after ingestion of 60% phorate emulsion

T1 sequence (P06276 29-602): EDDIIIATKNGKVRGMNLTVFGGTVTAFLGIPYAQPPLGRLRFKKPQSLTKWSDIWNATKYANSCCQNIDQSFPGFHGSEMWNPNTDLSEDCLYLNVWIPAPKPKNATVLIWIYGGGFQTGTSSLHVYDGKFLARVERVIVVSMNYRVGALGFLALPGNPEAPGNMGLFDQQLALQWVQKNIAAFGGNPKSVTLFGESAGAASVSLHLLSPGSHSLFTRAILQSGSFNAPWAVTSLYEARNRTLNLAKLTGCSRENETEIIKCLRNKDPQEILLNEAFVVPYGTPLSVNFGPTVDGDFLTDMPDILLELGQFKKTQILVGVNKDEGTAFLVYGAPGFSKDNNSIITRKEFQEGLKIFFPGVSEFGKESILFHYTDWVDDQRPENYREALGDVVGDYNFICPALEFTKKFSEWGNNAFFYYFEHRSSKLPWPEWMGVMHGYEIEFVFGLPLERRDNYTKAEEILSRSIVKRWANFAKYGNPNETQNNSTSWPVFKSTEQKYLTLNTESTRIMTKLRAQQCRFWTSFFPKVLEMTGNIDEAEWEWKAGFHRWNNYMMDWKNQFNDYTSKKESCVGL

C[n+]1ccccc1/C=N/O [PAM, pralidoxime chloride, reference compound]
concentration of PAM ([1]; sixth day, after 0.5 g per hour for 5 days): significantly increased

CCOP(=O)(OCC)SCS(=O)(=O)CC [phoratoxon sulfone]
concentration at 1 day ([1]; patient, day 1, after HP): 2110 ng/mL | concentration at 4 h [1, 6]: 3240 ng/mL | concentration at 3 day ([1]; patient, day 3): 221 ng/mL | concentration at 5 day ([1]; patient, day 5): 114 ng/mL | concentration at 7 day ([1]; patient, day 7 (HP suspended)): 65.2 ng/mL | concentration at 10 day ([1]; patient, day 10 (HP suspended)): 44.9 ng/mL | concentration at 12 day ([1]; patient, day 12): 33.3 ng/mL | concentration at 14 day ([1]; patient, day 14): 29.4 ng/mL | concentration at 16 day ([1]; patient, day 16): 20.9 ng/mL | concentration at 18 day ([1]; patient, day 18): 20.3 ng/mL | change of serum level while HP was stopped [1]: gradually fell | IC50 (cholinesterase [2]): 0.5 µM | times more toxic than phorate (cholinesterase [2]): 1000 times

CCOP(=S)(OCC)SCSCC [phorate, phosphorodithioic acid O, O-diethyl S-[(ethylthio)methyl] ester]
phorate in blood ([1]; after the first HP treatment and subsequent daily HP treatments): not detected | unmetabolized phorate in first blood analysis ([1]; before HP, about 4 h after ingestion): did not detect | levels in the serum ([1]; patient, 34th day): < 10 ng/mL | logP [3]: 3.71 | IC50 (cholinesterase [2]): 3100 µM | unmetabolized phorate in blood [4]: no longer detectable | aging of AChE inhibited by phorate (AChE): no significant aging | cholinesterase levels (cholinesterase [5]; 23rd day): 1,634 U/L | cholinesterase levels (cholinesterase [5]; 27th day): 3592 U/L | cholinesterase levels (cholinesterase [5]; 34th day): 4,821 U/L | serum cholinesterase, share of the normal value (cholinesterase [5]; after 30 days): about 50% | serum cholinesterase activity (cholinesterase [5]; day 1): 268 u/L | serum cholinesterase activity (cholinesterase [5]; day 3): 200 u/L | serum cholinesterase activity (cholinesterase [5]; day 7): 200 u/L | serum cholinesterase activity (cholinesterase [5]; day 14): 233 u/L | serum cholinesterase activity (cholinesterase [5]; day 28): 3621 u/L | serum cholinesterase (cholinesterase [5]; upon transfer into ICU, after first blood perfusion): 268 U/L

CCOP(=S)(OCC)SC[S+]([O-])CC (stereo not shown) [phorate sulfoxide]
concentration at 1 day ([1]; patient, day 1, after HP): 1020 ng/mL | concentration at 4 h [1, 6]: 1440 ng/mL | concentration at 3 day ([1]; patient, day 3): 21.2 ng/mL | concentration at 5 day ([1]; patient, day 5): 10.9 ng/mL | concentration at 7 day ([1]; patient, day 7 (HP suspended)): 35.2 ng/mL | concentration at 10 day ([1]; patient, day 10 (HP suspended)): 80.2 ng/mL | concentration at 12 day ([1]; patient, day 12): 18.1 ng/mL | concentration at 14 day ([1]; patient, day 14): 17.6 ng/mL | concentration at 16 day ([1]; patient, day 16): 1.67 ng/mL | concentration at 18 day ([1]; patient, day 18): 0 ng/mL | change of serum level while HP was stopped [1]: significant rise | IC50 (cholinesterase [2]): 1500 µM

CCOP(=O)(OCC)SC[S+]([O-])CC (stereo not shown) [phoratoxon sulfoxide]
serum concentration ([1]; patient, day 1, after HP): 2180 ng/mL | serum concentration [1, 6]: 4170 ng/mL | serum concentration ([1]; patient, day 3): 696 ng/mL | serum concentration ([1]; patient, day 5): 304 ng/mL | serum concentration ([1]; patient, day 7 (HP suspended)): 219 ng/mL | serum concentration ([1]; patient, day 10 (HP suspended)): 177 ng/mL | serum concentration ([1]; patient, day 12): 96.2 ng/mL | serum concentration ([1]; patient, day 14): 72.3 ng/mL | serum concentration ([1]; patient, day 16): 14.5 ng/mL | serum concentration ([1]; patient, day 18): 0.743 ng/mL | change of serum level while HP was stopped [1]: gradually fell | IC50 (cholinesterase [2]): 0.9 µM | times more toxic than phorate (cholinesterase [2]): 1000 times

CCOP(=O)(OCC)SCSCC [phoratoxon]
serum concentration ([1]; patient, day 1, after HP): 161 ng/mL | serum concentration [1, 6]: 195 ng/mL | serum concentration ([1]; patient, day 3): 27.7 ng/mL | serum concentration ([1]; patient, day 5): 3.33 ng/mL | serum concentration ([1]; patient, day 7 (HP suspended)): 2.10 ng/mL | serum concentration ([1]; patient, day 10 (HP suspended)): 1.01 ng/mL | serum concentration ([1]; patient, day 12): 0.433 ng/mL | serum concentration ([1]; patient, day 14): 0.415 ng/mL | serum concentration ([1]; patient, day 16): 0 ng/mL | serum concentration ([1]; patient, day 18): 0 ng/mL | change of serum level while HP was stopped [1]: gradually fell | IC50 (cholinesterase [2]): 3 µM | times more toxic than phorate (cholinesterase [2]): 1000 times

CCOP(=S)(OCC)SCS(=O)(=O)CC [phorate sulfone]
concentration at 1 day ([1]; patient, day 1, after HP): 1310 ng/mL | concentration at 4 h [1, 6]: 1920 ng/mL | concentration at 3 day ([1]; patient, day 3): 191 ng/mL | concentration at 5 day ([1]; patient, day 5): 68.9 ng/mL | concentration at 7 day ([1]; patient, day 7 (HP suspended)): 30.7 ng/mL | concentration at 10 day ([1]; patient, day 10 (HP suspended)): 31 ng/mL | concentration at 12 day ([1]; patient, day 12): 14.8 ng/mL | concentration at 14 day ([1]; patient, day 14): 18.2 ng/mL | concentration at 16 day ([1]; patient, day 16): 10.8 ng/mL | concentration at 18 day ([1]; patient, day 18): 2.71 ng/mL | change of serum level while HP was stopped [1]: slight rise | IC50 (cholinesterase [2]): 40 µM | times more toxic than phorate (cholinesterase [2]): about 80 times
